Experimental data: US12280066B2, “Methods and compositions related to glucocorticoid receptor antagonists and breast cancer” (The University of Chicago, priority 2010, dated 2025)

Experiments:
[1] = tested on: T-R MCF-7 (ER+/PR+/GR+) cells; assay: Annexin V FACS apoptosis assay, T-R MCF-7 cells; assay type: cell-based; details: mifepristone/paclitaxel 10^-6 M compared to paclitaxel alone, 20 hours, P=0.028
Procedure: (§1) Apoptosis was measured using FITC conjugated-anti-Annexin V antibody labeling followed FACS analysis to determine the percentage of the total cell population undergoing apoptosis after 20 hours of treatment.

[2] = tested on: Parental MCF-7 (ER+/PR+/GR+) cells; assay: Annexin V FACS apoptosis assay, parental MCF-7 cells; assay type: cell-based; details: mifepristone/paclitaxel 10^-6 M compared to paclitaxel alone, 20 hours
Procedure: as §1

[3] = tested on: glucocorticoid receptor (GR); details: literature (Moran et al., 2000; Mikosz et al., 2001); cited from earlier work
[4] = tested on: MDA-MB-231 human breast cancer cells; assay: MDA-MB-231 xenograft tumor volume in SCID mice; details: mifepristone 15 mg/kg i.p. two hours prior to paclitaxel 10 mg/kg, five successive days, compared to paclitaxel alone, P=0.013

SMILES: CC#C[C@]1(O)CC[C@H]2[C@@H]3CCC4=CC(=O)CCC4=C3[C@@H](c3ccc(N(C)C)cc3)C[C@@]21C [mifepristone]
- apoptosis (percentage of total cell population undergoing apoptosis) [1]: Significantly more apoptosis
- apoptosis (percentage of total cell population undergoing apoptosis) ([1]; listed as Mifepristone): increases
- apoptosis (percentage of total cell population undergoing apoptosis) [2]: No difference
- apoptosis (percentage of total cell population undergoing apoptosis) ([2]; listed as Mifepristone): not parental MCF-7
- reversal of GR-initiated cell survival signaling [3]: reverses cell survival signaling pathways initiated by the GR
- tumor volume over time [4]: increases MDA-MB-231 tumor susceptibility to paclitaxel
- tumor volume over time ([4]; listed as Mifepristone): significantly decreased tumor volume over time
